Columns and labels:
[1] = test system: spindle assembly checkpoint (phosphorylated histone H3 on serine 10) in HeLa cells; assay: SAC-Formation - Paclitaxel-Induced Assay; format: cell-based; details: Homo sapiens, paclitaxel 0.05 μM, 24 h incubation
Source text: (§1) The spindle assembly checkpoint assures the proper segregation of chromosomes during mitosis. Upon entry into mitosis, chromosomes begin to condensate which is accompanied by the phosphorylation of histone H3 on serine 10. Dephosphorylation of histone H3 on serine 10 begins in anaphase and ends at early telophase. Accordingly, phosphorylation of histone H3 on serine 10 can be utilized as a marker of cells in mitosis. Nocodazole is a microtubule destabilizing substance. Paclitaxel is a microtubule stabilizing compound. Thus, nocodazole as well as paclitaxel interfere with microtubule dynamics and mobilize the spindle assembly checkpoint. […] The mitotic breakthrough can be detected by the decrease of cells with phosphorylation of histone H3 on serine 10. This decline is used as a marker to determine the capability of compounds of the present invention to induce a mitotic breakthrough. The typical morphological alteration of nuclei with a prematurely completed mitosis after SAC-inhibition can be monitored via image analysis routines supporting those findings.
(§2) The nocodazole and paclitaxel variations were used to focus on compounds that are capable of inhibiting a SAC induced by both microtubule destabilization as well as microtubule stabilization. […]
(§3) Cultivated cells of the human cervical tumor cell line HeLa (ATCC CCL-2) were plated at a density of 1000 cells/well in a 1536-well microtiter plate in 2 μl PAA Ham's F12 Medium supplemented with 1% (v/v) glutamine, 1% (v/v) penicillin, 1% (v/v) streptomycin and 10% (v/v) fetal calf serum. […] Images were acquired with a PERKIN ELMER OPERA™ High-Content Analysis reader. Images were analyzed with image analysis software MetaXpress™ from Molecular devices utilizing the Mitotic Index application module. In this assay both labels HOECHST 33342 and phosphorylated Histone H3 on serine 10 were measured. […] The raw assay data were further analyzed by four-parametric hill equation using Genedata's Assay Analyzer and Condoseo software.

[2] = test system: spindle assembly checkpoint (phosphorylated histone H3 on serine 10) in HeLa cells; assay: SAC-Formation - Nocodazole-Induced Assay; format: cell-based; details: Homo sapiens, nocodazole 0.1 μg/ml, 24 h incubation
Source text: as §1, §2, §3

Compound | IC50 [1] [nM] | IC50 [2] [nM]
Cc1noc(Nc2cnc(C(F)(F)F)cn2)c1C(=O)Nc1ccc(OC2CCN(CCC(F)(F)F)CC2)nc1 [Example 1a, 3-Methyl-5-{[5-(trifluoromethyl)pyrazin-2-yl]amino}-N-(6-{[1-(3,3,3-trifluoropropyl)-piperidin-4-yl]oxy}pyridin-3-yl)-1,2-oxazole-4-carboxamide] | 760 | 430
Cc1noc(Nc2cnc(C(=O)NC3CCN(CC(F)F)CC3)cn2)c1C(=O)Nc1ccc(F)c(F)c1 [Example 1b, N-[1-(2,2-Difluoroethyl)piperidin-4-yl]-5-({4-[(3,4-difluorophenyl)carbamoyl]-3-methyl-1,2-oxazol-5-yl}amino)pyrazine-2-carboxamide] | 630 | 620
Cc1noc(Nc2cnc(C(F)(F)F)cn2)c1C(=O)Nc1ccc(F)c(F)c1 [Example 1c, N-(3,4-Difluorophenyl)-3-methyl-5-{[5-(trifluoromethyl)pyrazin-2-yl]amino}-1,2-oxazole-4-carboxamide] | 180 | 170
